Assay [1] concerns native GABAB receptors (130K and 100K proteins). The conditions noted are these: for competition with / displacement of [125I]CGP71872 at native receptors: FIG. 4b; for [125I]CGP71872 labelling in the presence of excess unlabelled antagonist: 1 μM (10^−6 M) competitor. On the technique in general: Loss of bound radioactivity is the signal in a displacement assay; it reports binding, not function.
Description: The incubation is terminated by centrifugation at 20 000×g for 10 min at 4° C. This step removed free unbound photoaffinity label. […] The suspension is centrifuged at 20 000×g for 10 min and resuspended at a concentration of 8 mg/ml protein in buffer. […] The labelled membranes could be stored at −80° C.

For assay [2], the target named is GABAB receptors in membranes from rat cerebral cortex (Rattus norvegicus, UniProt Q9Z0U4). Description: biochemical. Type of assay: binding.
Chain of GABAB receptors in membranes from rat cerebral cortex (Q9Z0U4 164-960 limits assumed): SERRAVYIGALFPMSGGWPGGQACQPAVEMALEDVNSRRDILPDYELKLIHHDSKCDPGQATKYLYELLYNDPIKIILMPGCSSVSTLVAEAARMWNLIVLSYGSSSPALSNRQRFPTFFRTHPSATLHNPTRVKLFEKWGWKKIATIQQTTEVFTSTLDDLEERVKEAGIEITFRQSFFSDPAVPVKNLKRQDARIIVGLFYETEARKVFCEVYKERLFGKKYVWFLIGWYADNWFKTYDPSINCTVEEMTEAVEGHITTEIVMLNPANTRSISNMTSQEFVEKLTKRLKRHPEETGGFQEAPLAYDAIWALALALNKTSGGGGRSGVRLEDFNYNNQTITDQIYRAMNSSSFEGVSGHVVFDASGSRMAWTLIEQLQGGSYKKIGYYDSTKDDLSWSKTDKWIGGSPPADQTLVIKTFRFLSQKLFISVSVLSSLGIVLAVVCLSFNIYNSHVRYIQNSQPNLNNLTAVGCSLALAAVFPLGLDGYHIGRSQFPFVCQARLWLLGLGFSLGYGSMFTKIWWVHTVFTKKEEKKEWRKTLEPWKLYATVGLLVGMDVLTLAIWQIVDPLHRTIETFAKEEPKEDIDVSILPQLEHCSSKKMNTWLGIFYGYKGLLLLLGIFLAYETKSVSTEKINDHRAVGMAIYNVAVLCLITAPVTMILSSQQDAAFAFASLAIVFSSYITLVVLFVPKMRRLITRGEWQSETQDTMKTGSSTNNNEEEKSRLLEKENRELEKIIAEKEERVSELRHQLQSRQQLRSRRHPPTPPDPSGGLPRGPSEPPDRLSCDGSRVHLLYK
Chain of GABAB receptors in membranes from rat cerebral cortex (O88871 41-940, further chain): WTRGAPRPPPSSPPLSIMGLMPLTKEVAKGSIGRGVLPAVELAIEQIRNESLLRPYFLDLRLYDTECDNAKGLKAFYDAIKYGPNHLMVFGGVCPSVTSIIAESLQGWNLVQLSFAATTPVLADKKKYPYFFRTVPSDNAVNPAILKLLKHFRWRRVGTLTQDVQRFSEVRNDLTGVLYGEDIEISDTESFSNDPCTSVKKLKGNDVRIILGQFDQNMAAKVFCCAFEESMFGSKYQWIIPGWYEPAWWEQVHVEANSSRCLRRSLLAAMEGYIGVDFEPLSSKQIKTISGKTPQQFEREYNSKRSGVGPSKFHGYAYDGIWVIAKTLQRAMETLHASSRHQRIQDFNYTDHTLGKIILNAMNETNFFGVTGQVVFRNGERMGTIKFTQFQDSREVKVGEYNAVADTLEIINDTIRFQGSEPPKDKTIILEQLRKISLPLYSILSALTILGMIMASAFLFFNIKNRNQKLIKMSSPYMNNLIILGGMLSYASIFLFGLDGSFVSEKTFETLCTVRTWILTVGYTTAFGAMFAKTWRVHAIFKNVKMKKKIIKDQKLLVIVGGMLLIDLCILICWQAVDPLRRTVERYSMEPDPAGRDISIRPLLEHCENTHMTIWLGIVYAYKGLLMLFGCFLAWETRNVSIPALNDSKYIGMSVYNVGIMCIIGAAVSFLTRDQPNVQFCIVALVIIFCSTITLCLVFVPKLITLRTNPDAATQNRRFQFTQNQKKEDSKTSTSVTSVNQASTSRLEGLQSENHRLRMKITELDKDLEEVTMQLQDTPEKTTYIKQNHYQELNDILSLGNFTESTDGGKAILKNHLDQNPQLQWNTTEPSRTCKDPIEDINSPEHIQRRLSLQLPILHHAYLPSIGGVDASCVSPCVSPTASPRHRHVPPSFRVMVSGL
In assay [3] the target is T1, recombinant GABABR1a receptors in membranes from COS 1 cells (Rattus norvegicus, UniProt Q9Z0U4).
T1 construct: The protein expressed from the 4,376 bp cDNA clone has an apparent molecular mass of about 120 kDa; expressed in transfected cells; host or cells: COS1 cells, transient transfection with the cDNA clone in pcDNAI
T1 sequence (Q9Z0U4 20-960): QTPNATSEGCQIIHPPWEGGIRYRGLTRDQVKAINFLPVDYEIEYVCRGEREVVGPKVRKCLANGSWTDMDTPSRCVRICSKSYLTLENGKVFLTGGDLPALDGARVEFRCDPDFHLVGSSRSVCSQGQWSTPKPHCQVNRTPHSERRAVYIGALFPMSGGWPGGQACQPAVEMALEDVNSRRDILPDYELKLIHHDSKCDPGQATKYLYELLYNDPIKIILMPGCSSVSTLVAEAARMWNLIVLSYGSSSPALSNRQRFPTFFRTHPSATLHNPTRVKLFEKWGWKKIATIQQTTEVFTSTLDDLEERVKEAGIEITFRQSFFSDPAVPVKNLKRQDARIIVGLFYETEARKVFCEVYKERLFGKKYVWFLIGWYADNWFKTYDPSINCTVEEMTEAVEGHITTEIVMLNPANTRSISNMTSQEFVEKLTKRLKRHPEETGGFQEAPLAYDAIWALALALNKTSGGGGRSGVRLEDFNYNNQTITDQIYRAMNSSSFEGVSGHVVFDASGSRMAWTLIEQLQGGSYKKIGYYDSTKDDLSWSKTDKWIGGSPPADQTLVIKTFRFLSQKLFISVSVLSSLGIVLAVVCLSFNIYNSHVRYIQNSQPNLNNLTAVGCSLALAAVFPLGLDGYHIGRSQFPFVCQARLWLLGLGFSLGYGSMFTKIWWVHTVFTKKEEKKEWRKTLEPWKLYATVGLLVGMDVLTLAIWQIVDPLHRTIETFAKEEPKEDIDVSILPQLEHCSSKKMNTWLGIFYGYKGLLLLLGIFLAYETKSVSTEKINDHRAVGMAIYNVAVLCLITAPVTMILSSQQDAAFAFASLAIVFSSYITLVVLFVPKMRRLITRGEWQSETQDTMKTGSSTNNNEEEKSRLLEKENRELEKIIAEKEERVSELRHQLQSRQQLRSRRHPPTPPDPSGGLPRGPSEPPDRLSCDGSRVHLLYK
Description: biochemical. Type of assay: binding.

Another assay concerns the target T2, GABABR1a (Rattus norvegicus, UniProt Q9Z0U4).
T2 construct: The ability of GABABR1a stably expressed in HEK293 cells to reduce forskolin-stimulated cAMP accumulation is analysed; expressed in transfected cells
Nature of the assay: Forskolin-stimulated cAMP accumulation in HEK293 cells stably expressing GABABR1a. Type of assay: cell-based. Here is the method:
HEK293 cells stably expressing GABABR1a are treated with 20 μM forskolin (Fsk) to stimulate cAMP formation (100%). […] Bars represent mean values+S.E.M. of at least three independent experiments performed in quadruplicate.
GABAB receptors are described to inhibit adenylate cyclase activity, stimulate phospholipase A2, activate K^+-channels, inactivate voltage-dependent Ca^2+-channels and to modulate inositol phospholipid hydrolysis. As GABABR1a and -b have identical sequence in all domains predicted to be intracellular they are expected to be able to couple to the same effector systems. […] The ability of GABABR1a stably expressed in HEK293 cells to reduce forskolin-stimulated cAMP accumulation is analysed (FIG. 5). We chose concentrations of forskolin and L-baclofen that should produce a maximal effect.
(In general: Changes in cAMP serve as a functional read-out for many G protein-coupled receptors.)

In assay [4] the test system is GABAA, benzodiazepine, kainate, AMPA, NMDA receptors, strychnine independent binding site at NMDA receptors, muscarinic cholinergic, α1- and α2-adrenergic …. Description: Receptor selectivity assays at 1 μM. The settings on record: concentration of 1 μM. As to the method:
[…]. The incubation is terminated by filtration through GF/B Whatman glass fibre filters. […]. The compound is therefore selective for GABAB receptors. […].

Assay [5] deals with non-transfected HEK293 cells. Nature of the assay: Forskolin-stimulated cAMP formation in untransfected HEK293 cells (control). Type of assay: cell-based.

“Also recorded” adds a separate entry of the source. Like-named read-outs stand apart in the source and are kept apart here.

T2 sequence (Q9Z0U4 20-960): as above

On to `NCCC[PH](=O)O` [CGP 27492 (APPA), 3-aminopropyl-phosphinic acid], for which, in assay [1], the “competition with / displacement of [125I]CGP71872 at native receptors” value (shortened to “competition with / displacement”) is given as “compete”.
The IC50 is the concentration at which inhibition is half-maximal. Regarding `CCOC(OCC)P(=O)(O)CCCN` [CGP 35348], the results for the IC50 in assay [2] and in assay [3] were 9.3 µM and 20 µM, respectively. Also, the “competition with / displacement” value in assay [1] was “effective displacers”.
As to `C[C@H](NC[C@H](O)CP(=O)(O)CC1CCCCC1)c1ccc(Cl)c(Cl)c1` [CGP 54626A], the IC50 in assay [3] (recombinant GABABR1a expressed in COS1 cells, read-out: Inhibition of [125I]CGP 64213 binding, COS1 cells IC50) was 0.0016 µM. In addition, the “effect on the L-baclofen inhibition of cAMP accumulation” value on GABABR1a (10 μM CGP54626A (FIG. 5), 300 μM L-baclofen) was “antagonised”. Besides, the “[125I]CGP71872 labelling in the presence of excess unlabelled antagonist” value in assay [1] is “no radioactivity is bound to the membranes”; in assay [1] (listed as CGP54626A), “inhibited”. The “competition with / displacement” value in assay [1] was “effective displacers”.
With `C[C@@H](NC[C@H](O)CP(=O)(O)CCCCCNC(=O)CCc1ccc(O)c(I)c1)c1cccc(C(=O)O)c1` [CGP 64213], in assay [4], the “activity in other receptor assays” value was “inactive”.
As to `NC[C@H](CC(=O)O)c1ccc(Cl)cc1` [L-baclofen], the “inhibition of forskolin-stimulated cAMP formation in untransfected cells” value in assay [5] is recorded as “does not inhibit; also recorded: No L-baclofen response”.
On to pertussis toxin, for which the “effect of preincubation on the L-baclofen response / modulation of adenylate cyclase” value on GABABR1a (10 ng/ml for 15–20 h) was “sensitive; also recorded: completely abolishes the effect of L-baclofen”.

Source of the values: patent publication US7119189B2, “Metabotropic GABA [B] receptors, receptor-specific ligands and their uses” (Novartis AG, priority 1997, dated 2006).
